According to US8524716B2, “Macrocyclic indoles as hepatitis C virus inhibitors” (priority 2007, dated 2013):

Legend:
[1] = from C=CCCNC(=O)c1cc(C)c2c(C3CCCCC3)c(-c3ccc4nc(-c5cc(OC)ccc5-c5ccc(Cl)cc5)ccc4c3)n(C(=O)NCCC=C)c2c1; rcm bond; 15-membered ring; Hoveyda-Grubbs 1st gen (0.42 eq); DCE; 1.32 mM; 80.0 °C
[2] = from C=CCCNC(=O)Cn1c(-c2ccc3nc(-c4cc(OC)ccc4-c4ccc(Cl)cc4)ccc3c2)c(C2CCCCC2)c2ccc(C(=O)NCCC=C)cc21; rcm bond; Hoveyda-Grubbs 1st generation catalyst; DCE; 1.32 mM; 80.0 °C

SMILES: COc1ccc(-c2ccc(Cl)cc2)c(-c2ccc3cc(-c4c(C5CCCCC5)c5ccc6cc5n4CC(=O)NCCC=CCCNC6=O)ccc3n2)c1
- ring closure, isolated yield [1]: 30%
- ring closure, yield of all isomers [2]: 30%
